# Columns and labels:
# [1] = system: SOD1 G93A mouse model of ALS; assay: Disease duration (onset until death) in SOD1 G93A mice; assay type: in vivo
# Excerpt: Disease duration. This parameter was selected in order analyze the treatment effects under a clinically relevant situation of the time from disease onset until death. Disease duration is defined as beginning from the appearance of the first clinical symptoms until death.
# [2] = system: SOD1 G93A mouse model of ALS; assay: Hanging wire test (crude muscular strength), time to failure of 180 s; assay type: in vivo; conditions: either treatment groups of both sexes
# Excerpt: The hanging wire test evaluates crude grip strength of the upper extremities.
# The hanging wire performance evaluating crude muscular strength in the task to reach a total hanging wire time of 180 s was not different in either treatment groups of both sexes (FIG. 6). Wildtype animals always reached the maximum time of 180 s (data not shown).
# [3] = system: spinal cord motoneurons of SOD1 G93A mice; assay: ChAT positive motoneurons in lumbar spinal cord sections; assay type: in vivo, mouse; conditions: for ChAT cell numbers per lumbar spinal cord section / motoneuron count: time of death; for ChAT cell numbers per lumbar spinal cord section: vehicle 6.1±0.95
# Experimental: After deep anaesthesia, mice were transcardially perfused with PBS solution followed by 4% paraformaldehyde. Spinal cords, sciatic nerves and gastrocnemius muscles were removed. Spinal cords and gastrocnemius muscles were then postfixed for 2 h in 4% paraformaldehyde. Thereafter, the tissue was dehydrated in 30% sucrose overnight and kept at -20° C. until further processing. Coronal sections of the lumbar spinal cord (L3-L6) (20 μm) and horizontal sections of the tibial muscle (35 μm) were prepared using a Leica Kryostat and collected on gelatine-coated glass slides. Spinal cord sections selected for immunohistochemical processing were first rehydrated. Then antigen-retrieval was performed for 4 h in TBS at 60° C. for later GFAP or Iba1 labeling and for 30 min in sodium citrate (pH 9.0) at 80° C. for later ChAT labeling. […] The primary antibodies (anti-ChAT 1:100, AB144 P, Millipore; anti-GFAP 1:200, DAKO; anti-Iba1 1:500, WAKO, Osaka, Japan) were applied at 4° C. for one night for GFAP and for three nights for ChAT. The secondary antibodies (Cy3 anti-goat or Cy2/Dylight anti rabbit; both Dianova) were applied on separate sections 1:300 for 1 h at room temperature. […] In order to quantify motoneuron numbers in coronal cryosections from the lumbar spinal (L3-L6) cord first the area of the ventral horn was defined according to the criteria from Kong et al. (Kong and Xu 1998). […] At least five sections per mouse spinal cord that were 100 μm apart over a length of at least 500 μm isolated from the lumbar spinal cord were counted. In the d50 treatment group analyzed at death, a total of 20 mice was counted from the vehicle (3 male, 3 female), Fas30 (3 male, 3 female), Fas100 (3 male, 3 female) and wildtype (1 male, 1 female) group. In the […] treatment group analyzed at death, a total of 20 mice was counted from the vehicle (3 male, 3 female), Fas30 (3 male, 3 female), and Fas100 (3 male, 3 female) and wildtype (1 male, 1 female) group. In the d50 treatment group analyzed at […], a total of 20 mice was counted from the vehicle (3 male, 3 female), Fas30 (3 male, 3 female), Fas100 (3 male, 3 female) and wildtype (1 male, 1 female) group.
# [4] = system: neuromuscular junctions of SOD1 G93A mice; assay: NMJ integrity of gastrocnemius muscle; assay type: in vivo, mouse; conditions: Fasudil vs control treated animals
# [5] = system: wildtype primary motoneurons in astrocyte/motoneuron co-culture; assay: Kainic acid toxicity in astrocyte/motoneuron co-culture; assay type: cell-based; conditions: KA exposure 24 h, Fasudil 4 or 20 μM, co-culture with astrocytes
# Excerpt: In order to compare the Fasudil neuroprotective effect on motoneurons in vivo with an corresponding in vitro paradigm the inventors subjected wildtype primary motoneurons cultured in a astrocyte/motoneuron co-culture to kainic acid (KA) toxicity.
# [6] = system: spinal cord microglia of SOD1 G93A mice; assay: Iba1 immunopositive microglia count in spinal cord anterior horn; assay type: in vivo, mouse
# Experimental: Spinal cord sections selected for immunohistochemical processing were first rehydrated. Then antigen-retrieval was performed for 4 h in TBS at 60° C. for later GFAP or Iba1 labeling and for 30 min in sodium citrate (pH 9.0) at 80° C. for later ChAT labeling. After washing for one time in PBS the sections were incubated at room temperature either in PBS and 10% of normal goat serum for later GFAP labeling or in PBS and 5% normal donkey serum for later ChAT labeling to block unspecific binding. The primary antibodies (anti-ChAT 1:100, AB144 P, Millipore; anti-GFAP 1:200, DAKO; anti-Iba1 1:500, WAKO, Osaka, Japan) were applied at 4° C. for one night for GFAP and for three nights for ChAT. The secondary antibodies (Cy3 anti-goat or Cy2/Dylight anti rabbit; both Dianova) were applied on separate sections 1:300 for 1 h at room temperature. Then a nuclear counter-stain with DAPI (4,6-diamidino-2-phenylindole) (Sigma-Aldrich) was performed before mounting in Moviol (Hoechst, Frankfurt, Germany).
# Astrogliosis and microgliosis were evaluated by the quantification of GFAP or Iba1 positive cells in the ventral horn of lumbar spinal cord sections, respectively. Again, the area of the ventral horn was defined and GFAP or Iba1 positive cells were manually counted. In the d50 treatment group analyzed at death, a total of 20 mice was counted from the vehicle (3 male, 3 female), Fas30 (3 male, 3 female), Fas100 (3 male, 3 female) and wildtype (1 male, 1 female) group. In the d50 treatment group analyzed at d100, a total of 20 mice was counted from the vehicle (3 male, 3 female), Fas30 (3 male, 3 female), Fas100 (3 male, 3 female) and wildtype (1 male, 1 female) group.
# The extent of microglial cell dissemination in the lumbar spinal cord was evaluated with a marker of activated microglia (Iba1) as described above under the heading “Quantitative evaluation of spinal cord motoneurons and astroglia, sciatic nerve axons and NMJ”.
# primary microglia = assay: Microglial viability, WST-1 metabolic activity; assay type: cell-based, mouse; conditions: up to 50 μM Fasudil
# Experimental: Microglial viability was assayed as metabolic activity using WST-1 reagent (4-[3-(4-iodophenyl)-2-(4-nitrophenyl)-2H-5-tetrazolio]-1,3-benzene disulfonate), based on the enzymatic cleavage of WST tetrazolium salt to formazan by the succinate-tetrazolium reductase system of the respiratory chain of intact mitochondria. The assay was performed according to the instructions of the manufacturer (Roche Applied Science, Mannheim, Germany). After 3 h of incubation, the resulting color reaction was measured at 450 nm (with 655 nm as the reference wavelength) in a microplate reader (Bio-Rad, Munich, Germany).
# [7] = CSF analysis after sub-occipital cistern magna puncture; assay type: in vivo, mouse; conditions: oral via drinking water; data not shown
# Experimental: To reach sufficient CSF levels of Fasudil the inventors administered Fasudil (LC Labs, Woburn, USA; product number F-4660) at a low concentration of […] (Fas30) or at a high concentration of 50 mg (Fas100) in 100 ml drinking water. Control groups received the respective amount of isotonic drinking water termed as vehicle (Veh).
compound,measurement,setting,value
"O=S(=O)(c1cccc2cnccc12)N1CCCNCC1 [Fasudil, 1-(5-isoquinolinesulfonyl)homopiperazine]",disease duration,[1]; presymptomatically treated female mice,prolonged time
same,disease duration,[1]; symptomatically treated groups,did not show any significant alterations
same,hanging wire performance (180 s),[2],not different
same,motoneuron numbers differentiated by cell body size,"[3]; day 100, female, Fas30 vs transgenic vehicle, trend not significant",more motoneurons in all size groups
same,cumulative cell body size per anterior horn section,"[3]; day 100, female, Fasudil vs vehicle",defined trend to be larger
same,numbers of ChAT positive motoneurons,"[3]; day 100, female, presymptomatic Fas30 vs transgenic vehicle",strong trend of elevated numbers of motoneurons
same,ChAT cell numbers per lumbar spinal cord section,"[3]; female, presymptomatic F100 (high dose)",7.3±1.00
same,ChAT cell numbers per lumbar spinal cord section,"[3]; female, presymptomatic Fas30",8.6±0.36
same,motoneuron count,"[3]; female, symptomatic treatment groups",did not differ
same,motoneuron count,"[3]; male, presymptomatic Fas30 or Fas100",did not profit
same,motoneuron count,"[3]; male, symptomatic Fas30 vs vehicle",higher motoneuron numbers
same,sciatic nerve axonal pathology and NMJ integrity of gastrocnemius muscle,[4],no significant differences
same,survival of KA exposed motoneurons,[5],protected motoneurons from KA induced cell death
same,Iba1 immunopositive microglial cells,"[6]; d100, Fasudil 30, vehicle SOD1G93A 27.8±4.7, wildtype 14.0±2.8",39.5±3.9 cells/0.5 mm^2
same,Iba1 immunopositive microglial cells,"[6]; disease end-stage, Fas30, vehicle 43.2±4.2",48.8±3.3 cells/0.5 mm^2
same,Iba1 immunopositive microglial cells,"[6]; disease end-stage, Fas100, vehicle 43.2±4.2",50.2±4.7 cells/0.5 mm^2
same,microglial metabolic activity (WST-1),primary microglia,no reduction in metabolic activity
same,blood-brain-barrier crossing (CSF analysis),[7],readily crossed the blood-brain-barrier

# From patent publication US9980972B2, “Rho kinase inhibitors for use in treating familial amyotrophic lateral sclerosis” (GEORG-AUGUST-UNIVERSITÄT GÖTTINGEN STIFTUNG ÖFFENTLICHEN …, priority 2012, dated 2018)
